From PubChem BioAssay AID1996
≈ marks a conversion by molar mass, not a printed value.

conditions: buffer; pH 7.4; 200.0 µM

Row | Structure (SMILES) | solubility kinetic
1 | OC(c1ccccc1)(c1ccc(Cl)cc1)C1CN2CCC1CC2 (centres undefined) | > 49.2 µg/mL
2 | CCCC[N+]1(C)[C@@H]2CC(OC(=O)[C@H](CO)c3ccccc3)C[C@H]1[C@@H]1O[C@@H]12.[Br-] (some centres undefined) | > 66.1 µg/mL
3 | CN(C)C(=O)c1ccc(-n2cnc3ccccc3c2=O)cc1 | > 44 µg/mL
4 | C=CCn1cc(C(=O)OCC)c(=O)c2ccc(F)cc21 | 40.2 µg/mL (≈ 146 µM)
5 | COc1cc(C(F)(F)F)c(C(=O)N(C)Cc2cccc(Cl)c2)cn1 | 43.6 µg/mL (≈ 122 µM)
6 | Cc1ccc(/C=C2\C(=O)NC(=O)N(CC3CCCO3)C2=O)s1 (centres undefined) | > 48.1 µg/mL
7 | O=C1/C(=C\c2ccsc2)NC(=S)N1c1ccccc1 | 4.5 µg/mL (≈ 15.7 µM)
8 | COc1ccc(N2CCN(C(=O)COC(=O)c3cccc(OC)c3O)CC2)cc1 | 7.2 µg/mL (≈ 18 µM)
9 | CCc1ccc(OC(=O)c2cncc(Br)c2)cc1 | 4 µg/mL (≈ 13.1 µM)
10 | COc1ccc(Cc2c([O-])[nH]c(=O)[nH]c2=O)c(OC)c1.[NH4+] | 43.1 µg/mL
11 | COc1ccccc1OCC(O)CNCc1ccc2c(c1)OCO2 (centres undefined) | 47.4 µg/mL (≈ 143 µM)
12 | O=C(Nc1ccccc1)C1CCCN1/C=C/C(=O)C(F)(F)F (centres undefined) | > 46.8 µg/mL
13 | CN(C)NC(=O)c1cccc(Cl)c1 | > 29.8 µg/mL
14 | Cc1ccc(C(=O)NCCn2ccc3ccccc32)cc1[N+](=O)[O-] | 3.9 µg/mL (≈ 12.1 µM)
15 | COc1ccc(-c2cn3ccc(C)cc3n2)cc1 | 33.1 µg/mL (≈ 139 µM)
16 | CCOc1ccc(Cc2onc3c2C(=O)CC(C)(C)C3)cc1OCC | 32.6 µg/mL (≈ 94.9 µM)
17 | O=C(COC(=O)Cc1cccc(F)c1)NC(=O)NC1CCCCC1 | > 50.5 µg/mL
18 | Cc1cc(C)cc(NC(=O)C(=O)NCCCN2CCOCC2)c1 | > 47.9 µg/mL
19 | CCC1(c2ccc(-c3ccccc3)cc2)C(=O)NC(=O)NC1=O | 4.6 µg/mL (≈ 14.9 µM)
20 | CC(C)(CO)NCC#Cc1ccccc1.Cl | > 36 µg/mL
21 | CC(=O)Nc1cccc(NC(=O)Cc2ccc3ccccc3c2)c1 | 0.9 µg/mL (≈ 2.83 µM)
22 | CN(C(=O)COC(=O)c1ccc2ccccc2n1)c1ccccc1 | > 48.1 µg/mL
23 | O=C(CC1(CC(=O)N2CCOCC2)CCCC1)Nc1ccccc1 | > 49.6 µg/mL
24 | O=[N+]([O-])c1ccc(CP(=O)(c2ccccc2)c2ccccc2)cc1 | 8 µg/mL (≈ 23.7 µM)

Row | Structure (SMILES) | solubility kinetic
25 | CC(=O)Nc1cccc(C(=O)Nc2cccc3ncccc23)c1 | 40.3 µg/mL (≈ 132 µM)
26 | Cc1ccc(NS(=O)(=O)c2ccc3c(c2)NC(=O)CO3)cc1 | 10.7 µg/mL (≈ 33.6 µM)
27 | O=C(Oc1ccc(Oc2ccccc2)cc1)N1CCC(O)CC1 | 34.9 µg/mL (≈ 111 µM)
28 | CN(CC(=O)Nc1cccc(F)c1)C(=O)c1ccc(OCc2cn3ccccc3n2)cc1 | 9.2 µg/mL (≈ 21.3 µM)
29 | O=C(c1cccs1)c1c[nH]cc1-c1ccccc1 | 4.4 µg/mL (≈ 17.4 µM)
30 | CC(=O)O.CN1CCCC(CN2c3ccccc3Sc3ccccc32)C1 (centres undefined) | > 55.6 µg/mL
31 | Cc1ccc(NC(=O)CCn2cc(C(F)(F)F)ccc2=O)cc1 | 45.5 µg/mL (≈ 140 µM)
32 | C=CCc1cccc2cc(C(=O)Nc3ccc(NC(C)=O)cc3)c(=O)oc12 | 1.7 µg/mL (≈ 4.69 µM)
33 | Cn1ccs/c1=N\C(=O)Nc1cccc(C(F)(F)F)c1 | > 45.2 µg/mL
34 | Cc1ccc(S(=O)(=O)/N=C(/Nc2ccccc2C)c2ccccc2)cc1 | 39.8 µg/mL (≈ 109 µM)
35 | O=C(COc1ccc(Cl)cc1)OCC(=O)N1CCOCC1 | > 47.1 µg/mL
36 | CCC12CN3CCN(CC(C3)/C1=N\NC(=O)c1ccc(F)cc1)C2 | > 49.6 µg/mL
37 | CCOC(=O)/C(C#N)=C/Nc1ccsc1C(C)=O | 3.5 µg/mL (≈ 13.2 µM)
38 | CC(=O)Nc1ccc(S(=O)(=O)c2cc(O)ccc2O)cc1 | > 46.1 µg/mL
39 | CCN(CC)c1ccc(N=Cc2c(O)[nH]c(=O)[nH]c2=O)cc1 | 5.8 µg/mL (≈ 19.2 µM)
40 | COc1ccc(CN(C)C(C)C(=O)Nc2ccc(S(=O)(=O)N3CCCCC3)cc2)c(OC)c1 (centres undefined) | 6.1 µg/mL (≈ 12.8 µM)
41 | COc1cccc(CC(=O)Nc2nc3ccccc3[nH]2)c1 | 2.2 µg/mL (≈ 7.82 µM)
42 | Cn1cnc2c(N/N=C/c3cccs3)ncnc21 | > 38.7 µg/mL
43 | CCOc1ccc(CNCCN2CCCC2)cc1.O=C(O)C(=O)O | 28.2 µg/mL
44 | CCOc1ccc(S(=O)(=O)/N=C(/Nc2ccc(S(N)(=O)=O)cc2)c2ccccc2)cc1 | 2.2 µg/mL (≈ 4.79 µM)
45 | CCOc1ccccc1NC(=O)c1cccc(N2C(=O)CCC2=O)c1 | > 50.8 µg/mL
46 | COCCNC(=O)/C(C#N)=C/c1ccc(O)cc1 | > 36.9 µg/mL
47 | O=C(CCCNC(=O)c1ccc(Cl)cc1)Nc1ncccc1O | > 50.1 µg/mL
48 | O=C(NN1CCOCC1)c1ccc(Br)s1 | > 43.7 µg/mL

Row | Structure (SMILES) | solubility kinetic
49 | O=C(COC(=O)c1ccccn1)Nc1cccc2ccccc12 | > 45.9 µg/mL
50 | COC(=O)c1csc(S(=O)(=O)N2CCOCC2)c1OC | > 48.2 µg/mL
51 | CS(=O)(=O)N(CC(=O)N1CCCC1)Cc1ccc(F)cc1 | > 47.2 µg/mL
52 | C=CCOc1ccc(C2NC(=O)c3ccccc3O2)cc1 (centres undefined) | 1.3 µg/mL (≈ 4.62 µM)
53 | S=C(NCCc1ccccc1)Nc1ccccc1 | 31.5 µg/mL (≈ 123 µM)
54 | O=C(Nc1ccc2[nH]c(=O)[nH]c2c1)c1ccc(Br)o1 | 8.3 µg/mL (≈ 25.8 µM)
55 | COc1cc(OC)c(C(=O)Nc2ccncc2)cc1OC | 42.6 µg/mL (≈ 148 µM)
56 | O=C(/C=C/c1ccc2c(c1)OCO2)c1ccccn1 | 4.2 µg/mL (≈ 16.6 µM)
57 | Cc1noc(C)c1S(=O)(=O)N1CCC(C(=O)O)CC1 | > 43.2 µg/mL
58 | Cc1cc(C(=O)Nc2ccc3ccccc3c2)c(C)o1 | 1.8 µg/mL (≈ 6.78 µM)
59 | CC(C)[C@H](NC(=O)OCc1ccccc1)C(=O)OCC(=O)c1ccccc1 | 16.1 µg/mL (≈ 43.6 µM)
60 | CC1CCN(c2cc(Br)c([N+](=O)[O-])cc2F)CC1 | 3.1 µg/mL (≈ 9.77 µM)
61 | Cc1ccccc1NC(=S)NC1CCCC1 | 34.9 µg/mL (≈ 149 µM)
62 | Cc1ccc2[nH]c(C(=O)N3CCOCC3)cc2c1 | > 36.6 µg/mL
63 | CC(SCC(=O)O)c1nc2ccccc2[nH]1 (centres undefined) | > 35.4 µg/mL
64 | COc1ccc(CNC(=O)Cc2c[nH]c3ccccc23)cc1OC | 48.6 µg/mL (≈ 150 µM)
65 | COc1ccc(CC(=O)OCC(=O)N2CCCC(C)C2)cc1 (centres undefined) | > 45.8 µg/mL
66 | C/C(=N\OC(=O)c1ccc(C)cc1)c1c(C)nc2cc(C)ccn12 | 6.6 µg/mL (≈ 20.5 µM)
67 | C=CCn1c(C(C)C)nc2ccccc21.Cl | > 35.5 µg/mL
68 | CC(C)C(=O)Nc1ccc(Oc2ccc3c(c2)C(=O)NC3=O)cc1 | < 0.3 µg/mL
69 | Cc1cc(Cl)ccc1OCCCC(=O)NCCCn1ccnc1 | > 50.4 µg/mL
70 | O=C(NCC1CCCO1)c1cnn2c(C(F)F)cc(C3CC3)nc12 (centres undefined) | > 50.5 µg/mL
71 | Nc1c([N+](=O)[O-])c(=O)oc2ccccc12 | > 30.9 µg/mL
72 | O=C1NC2(CCCCC2)C(=O)N1c1ccc(Cl)cc1 | 3.8 µg/mL (≈ 13.6 µM)

Row | Structure (SMILES) | solubility kinetic
73 | Cc1ccc(C(=O)/C=C/c2ccccc2[N+](=O)[O-])cc1 | 6.8 µg/mL (≈ 25.4 µM)
74 | Cc1cccn2c(=O)c(C=O)c(NCc3ccccc3)nc12 | 0.2 µg/mL (≈ 0.682 µM)
75 | COC(=O)CSc1nc(Cc2ccccc2)nc2ccccc12 | 10.7 µg/mL (≈ 33 µM)
76 | O=C(NCCO)/C(=C/c1cccc([N+](=O)[O-])c1)NC(=O)c1ccco1 | > 51.8 µg/mL
77 | CN(Cc1ccccc1)C(=O)COC(=O)CN1C(=O)c2ccccc2C1=O | > 55 µg/mL
78 | CN(C)c1ccc(NC(=O)c2cnsn2)cc1 | 30.2 µg/mL (≈ 122 µM)
79 | Cc1nccn1CCOc1ccc(Cl)cc1.O=C(O)C(=O)O | 45 µg/mL
80 | CC1Cc2ccccc2N1CC(=O)Nc1cccc(S(N)(=O)=O)c1 (centres undefined) | > 51.8 µg/mL
81 | CCSc1nnc(SCC(=O)NC2CCCCC2)s1 | > 47.6 µg/mL
82 | COc1ccc(OCC(=O)Nc2ccccc2N2CCN(C)CC2)cc1 | 49.5 µg/mL (≈ 139 µM)
83 | CC(=O)NCCNS(=O)(=O)c1ccc(C)c([N+](=O)[O-])c1 | > 45.2 µg/mL
84 | O=C(Nc1sc2c(c1C(=O)NCCCO)CCCC2)c1ccccc1 | 1.6 µg/mL (≈ 4.46 µM)
85 | COc1cccc(CN(C)Cc2c(O)ccc3ccccc23)c1 | 29.6 µg/mL (≈ 96.3 µM)
86 | CCOC(=O)c1cc2ccccc2n1CC(=O)c1ccccc1 | < 0.7 µg/mL
87 | CCOC(=O)CNC(=S)NN(C)C | > 30.8 µg/mL
88 | O=C(NCCc1c[nH]c2ccccc12)c1ccccc1 | 34.7 µg/mL (≈ 131 µM)
89 | Cc1ccc(-c2csc3ncnc(N4CCN(C)CC4)c23)cc1C | 45.7 µg/mL (≈ 135 µM)
90 | O=C(Nc1ccccc1)NC1CCN(Cc2c(F)cccc2Cl)CC1 | 6.8 µg/mL (≈ 18.8 µM)
91 | COc1ccc(CNC(=O)CCSCc2ccc(C)cc2)cc1 | 16.5 µg/mL (≈ 50.1 µM)
92 | Br.CNc1nc2ccccc2n1CC(=O)c1ccccc1 | > 51.9 µg/mL
93 | C=CCNc1nc2c(c(=O)[nH]c(=O)n2C)n1CCCc1ccccc1 | 5.2 µg/mL (≈ 15.3 µM)
94 | O=C(Nc1ccccc1)c1ccccc1NC(=O)c1ccccc1C(=O)O | 52.6 µg/mL (≈ 146 µM)
95 | CCc1nc(SCC(=O)NC2CC2)c2c(C)c(C)sc2n1 | 2.5 µg/mL (≈ 7.78 µM)
96 | CCOc1ccccc1NC(=O)CCn1ccnc1 | 37 µg/mL (≈ 143 µM)

Row | Structure (SMILES) | solubility kinetic
97 | CCCOc1ccc(/C=C/C(=O)N2CCOCC2)cc1 | > 41.3 µg/mL
98 | CC1CCN(Cc2nc(Cl)c3c4c(sc3n2)CCC4)CC1 | 27.4 µg/mL (≈ 85.1 µM)
99 | CC(C)c1ccccc1NC(=S)NCc1nc2ccccc2[nH]1 | > 48.7 µg/mL
100 | Fc1cc(Cl)c(OCc2noc(-c3ccsc3)n2)c(Cl)c1 | 0.5 µg/mL (≈ 1.45 µM)
101 | CC1CN(C(=S)Nc2ccc(Br)cc2)CC(C)O1 (centres undefined) | 48.5 µg/mL (≈ 147 µM)
102 | CN(C)CCCN=Cc1c(O)n(Cc2ccco2)c(=O)[nH]c1=O | 36.4 µg/mL (≈ 114 µM)
103 | O=C(c1ccc(F)c(F)c1)N1CCCc2ccccc21 | 37.9 µg/mL (≈ 139 µM)
104 | CC(=O)NC1C(O)OC(CO)C(O)C1O (centres undefined) | > 33.2 µg/mL
105 | CCCOc1ccc(/C=C2/C(=O)ON=C2C)cc1OCC | 36.8 µg/mL (≈ 127 µM)
106 | Cc1cccc(S(=O)(=O)NC2CCCCCCC2)c1 | 25.2 µg/mL (≈ 89.5 µM)
107 | CCCOc1ncnc2c1[nH]c1ccc(OC)cc12 | 0.5 µg/mL (≈ 1.94 µM)
108 | COc1cc(C(=O)OCC(=O)Nc2ccc(S(=O)(=O)N3CCCC3)cc2)cc(OC)c1OC | 18.1 µg/mL (≈ 37.8 µM)
109 | CCOC(=O)c1sc(NC(=O)CCN2C(=O)C3CCCCC3C2=O)cc1C (centres undefined) | 15 µg/mL (≈ 38.2 µM)
110 | CC(=O)COC(=O)C1=NN(c2ccccc2)C(=O)CC1 | > 41.1 µg/mL
111 | COc1ccc(-n2cc(-c3ccc(Br)cc3)[nH]c2=S)cc1 | < 0.4 µg/mL
112 | Cc1ccc(NC(=S)Nc2cccc(-c3n[nH]c(=S)o3)c2)cc1 | > 51.4 µg/mL
113 | CN1CCN(c2nc(Cl)ncc2F)CC1 | > 34.6 µg/mL
114 | O=C(OCC(=O)c1ccc[nH]1)c1ccc(C(F)(F)F)cc1 | 6.2 µg/mL (≈ 20.9 µM)
115 | COc1ccc([N+](=O)[O-])cc1NC(=O)COC(C)=O | 35.7 µg/mL (≈ 133 µM)
116 | O=C(COC(=O)c1cccnc1Cl)c1ccc(Cl)s1 | > 47.4 µg/mL
117 | Cc1nc(SCC(=O)N(C)C2CCS(=O)(=O)C2)c2ccccc2n1 (centres undefined) | > 54.8 µg/mL
118 | CCC(C)NC(=O)C1CCC(=O)N1CCc1ccccc1 (centres undefined) | > 43.3 µg/mL
119 | CCCCNC(=O)O/N=C(\N)CS(=O)(=O)C(C)(C)C | 36.5 µg/mL (≈ 124 µM)
